Measured values taken from patent EP0199170A1, “Composition and method for providing cytoprotection of the gastric mucosa in a mammal receiving aspirin” (priority 1985, dated 1986).
Where two headings read alike, the source gives them in different places. Marks after values point to notes of the source that are not given here.

What was measured:
Aspirin Lesions = assay: Gastric cytoprotection against aspirin lesions in adjuvant arthritic rats; type: in vivo, Sprague-Dawley rats; conditions: for Area of Lesion (mm^2), Mean + S.E. / No. of Lesions, Mean + S.E. / No. of Rats with Lesions: single daily oral administration for 16 days; for effectiveness as cytoprotectant against aspirin-induced gastric lesions in arthritic rats: coadministered with aspirin in the adjuvant-induced arthritis assay
Experimental: 300 mg/kg for 16 days coadministered with 150 mg/kg of aspirin in an adjuvant-induced arthritis assay [C.J. Pearson, "Experimental Joint Disease", J. Chron. […] At the completion of the assay-the stomachs were excised and examined for the presence or absence of lesions.

[1] = test system: Adjuvant Arthritis In Rats; assay: Adjuvant-induced arthritis assay (chronic inflammation, injected hind paw volume); conditions: for inhibition at 150 mg/kg: Rattus norvegicus, po, 384 h; for Injected Hind Paw Volume ml + S.E.: adjuvant control 5.57±0.4, normal control 1.89±0.03; for influence on the antiinflammatory efficacy of aspirin: adjuvant-induced arthritis assay, coadministered with aspirin
Experimental: 300 mg/kg for 16 days coadministered with 150 mg/kg of aspirin in an adjuvant-induced arthritis assay [C.J. Pearson, "Experimental Joint Disease", J. Chron.

[2] = test system: Acute Inflammation In Rats; assay: Carrageenin model of acute inflammation (paw edema); type: in vivo, Sprague-Dawley rats; conditions: for inhibition at 100 mg/kg: Rattus norvegicus; for Mean Paw Edema, ml+S.E.: control 1.16±0.1, 9 rats per group
Experimental: Male Sprague-Dawley rats (initial weight of about 200 g.) received a single oral dose of sodium thiosulfate (anhydrous) at either 30, 100 or 300 mg/kg coadministered with 100 mg/kg of aspirin in the carrageenin model of acute inflammation (paw edema) [C.A. Winter et al, "Carrageenin-lnduced Edema in Hind Paw of the Rat as an Assay for Anti-Inflammatory Drugs, "Proc. Soc. Exptl.

[3] = test system: Aspirin-induced Gastric Mucosal Erosions; assay: Aspirin-induced hemorrhagic gastric erosions in fasted rats, lesion number and area by computerized planimetry; type: in vivo, Sprague-Dawley rats; conditions: for Aspirin-induced Gastric Mucosal Erosions, percentage of glandular stomach area / Aspirin-induced Gastric Mucosal Erosions, total number of erosions: sacrificed 1 hour after; for Aspirin-induced Gastric Mucosal Erosions, percentage of glandular stomach area: dose 0 group 1.42; for Aspirin-induced Gastric Mucosal Erosions, total number of erosions: dose 0 group 11.90; for gastric cytoprotection: coadministered with acidified aspirin 10 mg/100 g, fasted rats
Experimental: Fasted Sprague-Dwaley female rats were given intragastrically (ig) at least four different doses ranging from 1-30 mg/100 g. body weight of sodium thiosulfate either 30 minutes before or parallel with intragastric administration of 10 mg/100 g body weight of acidified aspirin. Rats were killed one hour after aspirin administration and the number of hemorrhagic gastric erosions (or_ lesions) was determined and the area of erosion was measured by computerized planimetry.
Fasted Sprague-Dawley Female rats were given intragastrically (ig) at least three different doses ranging from 5-30 mg/100 g body weight of 3,3'-thiobis[propanoic acid] either 30 minutes before or parallel with intragastric administration of 10 mg/100 g body weight of acidified aspirin. Rats were killed one hour after aspirin administration and the number of hemorrhagic gastric erosions (or lesions) was determined and the area of erosion was measured by computerized planimetry. 3,3'-Thiobis[propanoic acid]
All of the experiments in this example were performed in female Sprague-Dawley rats having an initial body weight of 150-200 g. […] Before the administration of aspirin, the rats were fasted over night. […] The extent of gastric mucosal injury was evaluated by a Zeiss stereomicroscope coupled with a computerized planimeter which allowed both surface measurement and counting of lesions, according to the published method of Sandor Szabo et al entitled "A Quantitative Method for Assessing the Extent of Experimental Gastric Erosions and Ulcers", J. Pharmacological Methods 13, 59-66, 1985. Light microscopy of formalin-fixed sections was also performed.
Aspirin was suspended in 1% methylcellulose dissolved in 200 mM HCI and was administered at 10 mg/100 g body weight by gavage with rubber tube (Rusch No. 8) and rats were killed one hour later. The study design is presented as follows in Table A.
In the initial experiment, doses of sodium thiosulfate as its pentahydrate were given per os - (p.o.) either 30 minutes or 30 seconds before aspirin. The. 30 second pretreatment is virtually a parallel administration of the compounds.

male Sprague-Dawley rats = assay: Acute oral toxicity in rats; conditions: for toxicity: summary statement
Source text: Sodium thiosulfate (anhydrous) was given as a single oral dose to male Sprague-Dawley rats weighing approximately 116-140 g to determine its approximate acute oral LD50. The rats were fasted for four hours before medication, observed for seven days following medication and all surviving rats sacrificed and necropsied at the completion of the study.

[4] = Table D: 150 mg/kg each, controls 0
[5] = Table D: 150 mg/kg each, controls 0/10
[6] = Table D: 150 mg/kg each, controls 0, listed as aspirin
[7] = Table E: aspirin 150 mg/kg, Na thiosulfate 300 mg/kg, controls 0.04±0.04
[8] = Table E: aspirin 150 mg/kg, Na thiosulfate 300 mg/kg, controls 0.1±0.1
[9] = Table E: aspirin 150 mg/kg, Na thiosulfate 300 mg/kg, controls 1/10
[10] = Table G: 150 mg/kg each, single oral daily doses for 16 days
[11] = Table H: aspirin 150 mg/kg, Na thiosulfate 300 mg/kg, single oral daily doses for 16 days
[12] = parallel administration with aspirin 10 mg/100 g, converted from mg/100 g pentahydrate

CC(=O)Oc1ccccc1C(=O)O [Aspirin, aspirin]
Area of Lesion (mm^2), Mean + S.E. (Aspirin Lesions; [4]): 16.02±3.82 mm^2 | No. of Lesions, Mean + S.E. (Aspirin Lesions; [4]): 15.2±2.9 | No. of Rats with Lesions (Aspirin Lesions; [5]): 10/10 | Area of Lesion (mm^2), Mean + S.E. (Aspirin Lesions; [6]): 16.02 mm^2 | No. of Lesions, Mean + S.E. (Aspirin Lesions; [6]): 15.2 | Area of Lesion (mm^2), Mean + S.E. (Aspirin Lesions; [7]): 11.61±4.42 mm^2 | Area of Lesion (mm^2), Mean + S.E. (Aspirin Lesions; Table E: aspirin 150 mg/kg, Na thiosulfate 300 mg/kg, controls 0.04±0.04, listed as aspirin): 11.61 mm^2 | No. of Lesions, Mean + S.E. (Aspirin Lesions; [8]): 25.7±4.9 | No. of Lesions, Mean + S.E. (Aspirin Lesions; Table E: aspirin 150 mg/kg, Na thiosulfate 300 mg/kg, controls 0.1±0.1, listed as aspirin): 25.7 | No. of Rats with Lesions (Aspirin Lesions; [9]): 9/9 | inhibition at 150 mg/kg [1, 10]: 61% | inhibition at 150 mg/kg [1, 11]: 43% | Injected Hind Paw Volume ml + S.E. [1, 10]: 3.31 ± 0.2 mL | inhibition at 100 mg/kg ([2]; po): 44% | Mean Paw Edema, ml+S.E. ([2]; single oral dose 100 mg/kg): 0.65 ± 0.1 mL

anhydrous sodium thiosulfate [Na thiosulfate]
minimum statistically significant effective dose, as anhydrous form ([3]; coadministered with aspirin 10 mg/100 g, anhydrous equivalent of the pentahydrate dose): about 3 mg/100 g | minimum statistically significant effective dose (MED) [3, 12]: about 32 mg/kg | gastric irritancy (male Sprague-Dawley rats; at the very high dose level of 7,000 mg/kg, single oral dose): gastric irritancy was observed | approximate acute oral LD50 (ALDsD) (male Sprague-Dawley rats; single oral dose, male rats fasted four hours, observed 7 days): 7,000 mg/kg | toxicity (male Sprague-Dawley rats): low order of acute toxicity | Area of Lesion (mm^2), Mean + S.E. (Aspirin Lesions; [4]): 0.12±0.12 mm^2 | No. of Lesions, Mean + S.E. (Aspirin Lesions; [4]): 0.4±0.4 | No. of Rats with Lesions (Aspirin Lesions; [5]): 1/5 | Area of Lesion (mm^2), Mean + S.E. (Aspirin Lesions; [7]): 0 mm^2 | No. of Lesions, Mean + S.E. (Aspirin Lesions; [8]): 0 | No. of Rats with Lesions (Aspirin Lesions; [9]): 0/5 | effectiveness as cytoprotectant against aspirin-induced gastric lesions in arthritic rats (Aspirin Lesions): effective in reducing the number and size of lesions | effect on the development of arthritis ([1]; 150 or 300 mg/kg alone, single oral daily doses for 16 days): did not demonstrate an effect on the development of arthritis | % Inhibition [1, 10]: 10% | Injected Hind Paw Volume ml + S.E. [1, 10]: 5.21 ± 0.5 mL | % Inhibition [1, 11]: 2% | influence on the antiinflammatory efficacy of aspirin [1]: did not influence the anti-inflammatory efficacy of aspirin

sodium thiosulfate pentahydrate
protection against aspirin-induced gastric erosions ([3]; given p.o. 30 minutes before aspirin 10 mg/100 g): dose-dependent protection | minimum statistically significant effective dose (MED) ([3]; parallel administration with acidified aspirin 10 mg/100 g, intragastric, rats, area and number of lesions, listed as sodium thiosulfate as its pentahydrate): about 5 mg/100 g | minimum statistically significant effective dose (MED) ([3]; parallel administration with aspirin 10 mg/100 g, converted from mg/100 g): about 201 µmol/kg | minimum statistically significant effective dose (MED) [3, 12]: about 50 mg/kg | Aspirin-induced Gastric Mucosal Erosions, percentage of glandular stomach area ([3]; single oral dose 1.0 mg/100 g body weight, aspirin concomitantly 10 mg/100 g in acidified 1% methylcellulose): 0.89 percentage of glandular stomach area | Aspirin-induced Gastric Mucosal Erosions, total number of erosions ([3]; single oral dose 1.0 mg/100 g body weight, aspirin concomitantly 10 mg/100 g): 6.67 | Aspirin-induced Gastric Mucosal Erosions, percentage of glandular stomach area ([3]; single oral dose 5.0 mg/100 g body weight, aspirin concomitantly 10 mg/100 g, p<0.01): 0.18* percentage of glandular stomach area | Aspirin-induced Gastric Mucosal Erosions, total number of erosions ([3]; single oral dose 5.0 mg/100 g body weight, aspirin concomitantly 10 mg/100 g, p≤0.01): 1.56* | Aspirin-induced Gastric Mucosal Erosions, percentage of glandular stomach area ([3]; single oral dose 10.0 mg/100 g body weight, aspirin concomitantly 10 mg/100 g, p<0.01): 0.27* percentage of glandular stomach area | Aspirin-induced Gastric Mucosal Erosions, total number of erosions ([3]; single oral dose 10.0 mg/100 g body weight, aspirin concomitantly 10 mg/100 g, p≤0.01): 1.78* | Aspirin-induced Gastric Mucosal Erosions, percentage of glandular stomach area ([3]; single oral dose 30.0 mg/100 g body weight, aspirin concomitantly 10 mg/100 g, p<0.01): 0* percentage of glandular stomach area | Aspirin-induced Gastric Mucosal Erosions, total number of erosions ([3]; single oral dose 30.0 mg/100 g body weight, aspirin concomitantly 10 mg/100 g, p≤0.01): 0*

sodium thiosulfate
gastric cytoprotection ([3]; intragastric): significant (p<0.01) gastric cytoprotection | toxicity (male Sprague-Dawley rats): low order of toxicity | influence on the antiinflammatory efficacy of aspirin [1]: did not reduce the antiinflammatory efficacy of aspirin

O=C(O)CCSCCC(=O)O [TBPA, 3,3'-Thiobis[propanoic acid]]
minimal effective dose ([3]; Rattus norvegicus, po, parallel administration with acidified aspirin 10 mg/100 g, intragastric, rats, area and number of lesions, read-out: minimum statistically significant effective dose (MED)): ~300 mg/kg | gastric cytoprotection ([3]; intragastric): significant (p<0.01) gastric cytoprotection | toxicity (male Sprague-Dawley rats): low order of toxicity | effectiveness as cytoprotectant against aspirin-induced gastric lesions in arthritic rats (Aspirin Lesions): effectiveness of TBPA as cytoprotectant against ASA-induced gastric lesions was also demonstrated | influence on the antiinflammatory efficacy of aspirin [1]: did not reduce the antiinflammatory efficacy of ASA

CCCCC1C(=O)N(c2ccccc2)N(c2ccccc2)C1=O [Phenylbutazone, phenylbutazone]
inhibition at 100 mg/kg ([2]; single oral dose 100 mg/kg, paw edema vs control, read-out: % Inhibition): 65% | Mean Paw Edema, ml+S.E. ([2]; single oral dose 100 mg/kg): 0.41 ± 0.03 mL
